From US6884593B1, “Method of identifying properties of substance with respect to human prostaglandin D2 receptors” (BML, Inc., priority 1999, dated 2005)

Key:
human CRTH2 [1] = target: T1, human CRTH2 (Homo sapiens, UniProt Q9Y5Y4); test: [^3H]PGD2 binding assay, cells expressing human CRTH2 (KB8); conditions: for order of the degree of the binding affinity of prostanoids to human CRTH2: [^3H]PGD2 binding in the presence of unlabeled prostanoids, KB8, FIG. 3; for degree of binding affinity of human CRTH2 compared with that of the DP receptor: comparison human CRTH2 vs DP receptor
T1 construct: A transformant into which full-length human CRTH2 cDNA is integrated is deposited as B19 cDNA; expressed in transfected cells
T1 sequence (Q9Y5Y4 1-395): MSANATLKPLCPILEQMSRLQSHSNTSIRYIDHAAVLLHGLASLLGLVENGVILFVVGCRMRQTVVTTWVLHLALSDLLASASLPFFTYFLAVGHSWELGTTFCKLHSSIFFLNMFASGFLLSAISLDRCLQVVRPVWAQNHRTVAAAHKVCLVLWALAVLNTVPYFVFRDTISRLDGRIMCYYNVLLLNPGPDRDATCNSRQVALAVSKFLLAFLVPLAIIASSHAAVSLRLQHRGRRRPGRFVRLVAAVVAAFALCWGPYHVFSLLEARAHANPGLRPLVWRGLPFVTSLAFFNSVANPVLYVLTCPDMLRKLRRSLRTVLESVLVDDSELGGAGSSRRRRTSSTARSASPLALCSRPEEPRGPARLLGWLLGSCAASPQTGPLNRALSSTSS
Protocol: Human CRTH2 gene expression plasmid pRc/B19 was prepared by means of a method described in detail in Nagata, K. et al., J. Immunol., 162: 1278-1286, 1999 and Japanese Sai-Kohyo (PCT) Patent Publication WO 97/46677. A transformant into which full-length human CRTH2 cDNA is integrated is deposited as B19 cDNA in National Institute of Bioscience and Human-Technology, Agency of Industrial Science and Technology (deposit number: FERM P-15616), and B19 cDNA can be used after approval is obtained from the depositor. When B19 cDNA is digested with restriction enzymes HindIII and XbaI, and is subcloned into the HindIII/XbaI site of plasmid pRc/CMV (product of Invitrogen), the same expression plasmid as the aforementioned pRc/B19 can be prepared. Through electroporation, the pRc/B19 and control plasmid pRc/CMV were genetically introduced into K562 cells, a human erythroblastic leukemia cell strain, and were subjected to selective culture for two to three weeks in the presence of 400 μg/ml of geneticin (product of SIGMA). Among the K562 cells into which the pRc/B19 had been genetically introduced, the survived cells were added to a 96-well microplate (0.3 cells per well), and then cultured for two to three weeks. The proliferated cell clones were subjected to fluorescence staining by use of an anti human CRTH2 antibody (Nagata, K. et al., J. Immunol., 162: 1278-1286, 1999), and clone KB8, in which human CRTH2 was highly expressed, was obtained. The K562 cells into which the control pRc/CMV had been genetically introduced were selected by use of geneticin, and then culture of the resultant cells was continued while polyclones were present (hereinafter the cells will be referred to as “K562/neo”).
(§1) Each of KB8 cells, KD36 cells, and K562/neo cells was resuspended in Hank's balanced salt solution (HBSS, product of Gibco BRL) so as to attain a concentration of 3×10^7 cells/ml. The resultant suspension (0.1 ml) was placed in a 0.5-ml microtube, and then cooled on ice. Subsequently, 1 nM of [^3H]PGD2 (product of Amersham) which had been diluted with HBSS was added to the suspension, to thereby allow reaction to proceed on ice for one hour. The reacted cells were placed carefully onto RPMI1640 medium (1 ml) containing 1 M sucrose and 10% fetal bovine serum, the medium having been placed in an 1.5-ml microtube and cooled by ice, and subjected to centrifugation (10,000 revolutions, three minutes) by use of a micro-centrifuge. […] The radiation activity of the cells bound to [^3H]PGD2 was measured by use of a liquid scintillation counter. The radiation activity of the cells when measured, in a manner similar to that described above, in the presence of unlabeled PGD2 (concentration: 200 times or more that of [^3H]PGD2) was used as an index of non-specific binding. […] In contrast, the specific binding of [^3H]PGD2 to KB8 or KD36 is observed.
(§2) [^3H]PGD2 binding assay described in Example 3 was carried out in the presence of various unlabeled prostanoids (products of Cayman), and the binding affinity of human CRTH2 to various prostanoids was evaluated.

DP receptor [2] = target: T2, DP receptor (Homo sapiens, UniProt Q13258); test: [^3H]PGD2 binding assay, cells expressing DP receptor (KD36); conditions: [^3H]PGD2 binding in the presence of unlabeled prostanoids, KD36, FIG. 3
T2 construct: the coding region of the human DP receptor was amplified through PCR; expressed in transfected cells; cDNA from human small intestine poly(A)+ RNA
T2 sequence (Q13258 1-359): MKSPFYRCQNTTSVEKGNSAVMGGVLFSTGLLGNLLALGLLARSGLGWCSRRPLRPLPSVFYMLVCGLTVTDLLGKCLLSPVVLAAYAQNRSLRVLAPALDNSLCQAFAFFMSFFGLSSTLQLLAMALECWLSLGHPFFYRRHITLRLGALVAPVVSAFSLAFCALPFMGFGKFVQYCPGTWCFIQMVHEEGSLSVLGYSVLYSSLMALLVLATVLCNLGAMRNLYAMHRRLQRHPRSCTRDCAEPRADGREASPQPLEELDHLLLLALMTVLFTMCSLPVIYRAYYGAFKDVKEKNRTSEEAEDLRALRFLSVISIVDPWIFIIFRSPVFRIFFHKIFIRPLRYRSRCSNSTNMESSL
Protocol: Human DP receptor cDNA was cloned through RT-PCR on the basis of the nucleotide sequence of human DP receptor cDNA described in Boie, Y. et al., J. Biol. Chem., 270: 18910-18916, 1995 and Japanese Kohyo (PCT) Patent Publication No. 10-507930. Specifically, the cDNA was prepared by use, as an template, of poly(A)+RNA (product of Clonetech) of the human small intestine in which the human DP receptor is highly expressed, and by use of oligo (dT) primer (product of Pharmacia) and MMLV reverse transcriptase (product of Pharmacia). Subsequently, the coding region of the human DP receptor was amplified through PCR (35 heat cycles, each cycle consisting of heating at 94° C. for 1 minute, at 68° C. for 1 minute, and at 72° C. for 1 minute) by use of a forward primer (5′-[…]: SEQ No. 1) containing a restriction enzyme HindIII site, and a reverse primer (5′-[…]: SEQ No. 2) containing an XbaI site. The resultant PCR product was digested with HindIII and XbaI, and subcloned into the HindIII/XbaI site of pRc/CMV. The thus-prepared human DP receptor expression plasmid was introduced into a K562 cell in a manner similar to that described in Example 1, and subjected to selection by use of geneticin and to cloning. The proliferated clones were subjected to the below-described [^3H]PGD2 binding assay, to thereby obtain clone KD36 in which the DP receptor is highly expressed.
as §1, §2

human CRTH2 [3] = target: T1, human CRTH2; test: Down modulation of human CRTH2 molecules from cell surface, KB8 cells; assay type: cell-based; conditions: 37° C. for one hour, flow cytometer, FIG. 4
Protocol: KB8 cells were suspended in RPMI1640 medium containing 10% fetal bovine serum so as to attain a concentration of 10^6 cells/ml, and cultured at 37° C. for one hour in the presence of a test sample. After completion of culturing, the cells were washed twice with HBSS through centrifugation, to thereby remove cell-free part of the sample. Subsequently, the resultant cells were resuspended in HBSS containing 0.5% bovine serum albumin and 0.05% NaN3, and the resultant suspension was subjected to fluorescence staining by use of anti CRTH2 monoclonal antibody HM16 and phycoerythrin-labeled anti rat immunoglobulin antibody. The average fluorescence intensity of the stained cells was measured by use of a flow cytometer (product of Becton Dickinson), and the fluorescence intensity of the cells treated with the sample was compared with that of non-treated cells (control).

human CRTH2 [4] = target: T1, human CRTH2; test: Intracellular calcium assay, KB8 cells; assay type: cell-based; conditions: treatment with PGD2 (some nM), Fura-2AM
Protocol: (§3) Each of KB8 cells, KD36 cells, and K562/neo cells was suspended in RPMI1640 medium containing 10% fetal bovine serum so as to attain a concentration of 5×10^6 cells/ml, and cultured at 37° C. for one hour in the presence of 5 μM of Fura-2AM (product of Dojindo). After completion of culturing, the cells were washed three times with HBSS through centrifugation, to thereby remove free Fura-2AM. Subsequently, the resultant cells were resuspended in HBSS containing 0.1% bovine serum albumin so as to attain a concentration of 10^6 cells/ml. The resultant suspension was placed in a quartz cell (volume: 0.4 ml), and the cell was set in spectrophotometer LS50B (product of PerkinElmer). After a sample was added to the suspension, the time-course change of the ratio of fluorescence intensities (510 nm) at excitation wavelengths of 340 nm and 380 nm was obtained through calculation by use of FL-Winlab software (product of PerkinElmer).

DP receptor [5] = target: T2, DP receptor; test: Intracellular calcium assay, KD36 cells; assay type: cell-based; conditions: treatment with PGD2 (some nM), Fura-2AM
Protocol: as §3

K562/neo cells = test: Intracellular calcium assay, control K562/neo cells; assay type: cell-based, human; conditions: treatment with PGD2 (0.25-250 nM), Fura-2AM
Protocol: as §3

Row | SMILES | order of the degree of the binding affinity of prostanoids to human CRTH2 (human CRTH2 [1]) | degree of binding affinity of human CRTH2 compared with that of the DP receptor (human CRTH2 [1]) | order of the degree of the binding affinity of prostanoids to the DP receptor (DP receptor [2]) | down modulation of CRTH2 (average fluorescence intensity vs non-treated control) (human CRTH2 [3]) | concentration of calcium in the cells (human CRTH2 [4]) | concentration of calcium in the cells (DP receptor [5]) | concentration of calcium in the cells (K562/neo cells)
1 | CCCCCC(=O)CCC1C(=O)CC(O)C1C/C=C\CCCC(=O)O (stereo not shown) [13,14-dihydro-15-keto PGD2] | PGD2≧13,14-dihydro-15-keto PGD2>>prostaglandin J2 (PGJ2) | a great difference exists between human CRTH2 and the DP receptor | PGE2>13,14-dihydro-15-keto PGD2>15-deoxydelta 12,14-PGJ2 | induce down modulation of CRTH2 significantly as compared with the control |  |  | 
2 | CCCCC/C=C/C=C1/C(=O)C=CC1C/C=C\CCCC(=O)O (stereo not shown) [15-deoxydelta 12,14-PGJ2] | prostaglandin J2 (PGJ2)>15-deoxydelta 12,14-PGJ2≧prostaglandin E2 (PGE2) |  | 13,14-dihydro-15-keto PGD2>15-deoxydelta 12,14-PGJ2≧TXB2 |  |  |  | 
3 | CCCCC[C@H](O)/C=C/[C@H]1C=CC(=O)[C@@H]1C/C=C\CCCC(=O)O [PGA2, prostaglandin A2] | prostaglandin E2 (PGE2)=prostaglandin A2 (PGA2)>>thromboxane B2 (TXB2) |  | TXB2≧PGA2 |  |  |  | 
4 | CCCCC[C@H](O)/C=C/[C@H]1C(=O)C[C@H](O)[C@@H]1C/C=C\CCCC(=O)O [PGD2, Prostaglandin D2] | PGD2≧13,14-dihydro-15-keto PGD2 | equal to that of the binding affinity of the DP receptor to PGD2 | PGD2=PGJ2 | induce down modulation of CRTH2 significantly as compared with the control | increased considerably | increased considerably | did not vary significantly
5 | CCCCC[C@H](O)/C=C/[C@H]1[C@H](O)CC(=O)[C@@H]1C/C=C\CCCC(=O)O [PGE2, prostaglandin E2] | 15-deoxydelta 12,14-PGJ2≧prostaglandin E2 (PGE2)=prostaglandin A2 (PGA2) |  | PGJ2>>PGE2>13,14-dihydro-15-keto PGD2 | does not exert such an effect |  |  | 
6 | CCCCC[C@H](O)/C=C/[C@H]1C(=O)C=C[C@@H]1C/C=C\CCCC(=O)O [PGJ2, prostaglandin J2] | 13,14-dihydro-15-keto PGD2>>prostaglandin J2 (PGJ2)>15-deoxydelta 12,14-PGJ2 |  | PGD2=PGJ2>>PGE2 |  |  |  | 
7 | CCCCC[C@H](O)/C=C/[C@H]1OC(O)C[C@H](O)[C@@H]1C/C=C\CCCC(=O)O (stereo partly shown) [TXB2, thromboxane B2] | prostaglandin A2 (PGA2)>>thromboxane B2 (TXB2) |  | 15-deoxydelta 12,14-PGJ2≧TXB2≧PGA2 |  |  |  | 
